BindingDB's records for doi:10.1124/jpet.104.074864 (University of Piemonte Orientale, 2005)

Tests used:
[1] = molecular target: T1, Fatty-acid amide hydrolase 1 [30-579] (Rattus norvegicus, UniProt P97612)
T1 construct: 30-579
T1 sequence (P97612 whole entry): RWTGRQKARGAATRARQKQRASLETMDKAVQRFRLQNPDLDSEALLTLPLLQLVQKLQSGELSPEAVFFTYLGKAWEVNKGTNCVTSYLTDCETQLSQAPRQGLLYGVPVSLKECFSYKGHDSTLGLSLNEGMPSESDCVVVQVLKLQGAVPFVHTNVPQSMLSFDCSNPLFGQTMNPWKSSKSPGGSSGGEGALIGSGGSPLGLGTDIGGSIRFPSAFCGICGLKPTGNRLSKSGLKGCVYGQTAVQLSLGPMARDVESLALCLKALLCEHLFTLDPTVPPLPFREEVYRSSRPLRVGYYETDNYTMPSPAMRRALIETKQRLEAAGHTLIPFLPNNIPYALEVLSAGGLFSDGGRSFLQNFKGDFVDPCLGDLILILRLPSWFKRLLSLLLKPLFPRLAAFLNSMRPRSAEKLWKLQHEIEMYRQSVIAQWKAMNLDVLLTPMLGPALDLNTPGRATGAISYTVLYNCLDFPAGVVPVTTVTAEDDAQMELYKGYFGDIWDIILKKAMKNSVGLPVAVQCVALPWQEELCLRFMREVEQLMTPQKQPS

Cannabinoid receptor 2 = Cannabinoid receptor 2 (Homo sapiens, UniProt P34972)
Cannabinoid receptor 2, sequence (P34972 whole entry): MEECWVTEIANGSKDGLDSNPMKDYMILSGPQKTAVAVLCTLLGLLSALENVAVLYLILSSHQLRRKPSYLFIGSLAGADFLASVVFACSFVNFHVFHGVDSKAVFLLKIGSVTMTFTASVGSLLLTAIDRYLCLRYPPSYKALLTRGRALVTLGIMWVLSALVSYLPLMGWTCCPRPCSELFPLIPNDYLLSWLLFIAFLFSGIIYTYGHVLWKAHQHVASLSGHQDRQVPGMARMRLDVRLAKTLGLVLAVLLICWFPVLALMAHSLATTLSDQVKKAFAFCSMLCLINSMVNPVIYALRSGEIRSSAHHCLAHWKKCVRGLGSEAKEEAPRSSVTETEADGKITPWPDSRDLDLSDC

Cannabinoid receptor 1 = Cannabinoid receptor 1 (Homo sapiens, UniProt P21554)
Cannabinoid receptor 1, sequence (P21554 whole entry): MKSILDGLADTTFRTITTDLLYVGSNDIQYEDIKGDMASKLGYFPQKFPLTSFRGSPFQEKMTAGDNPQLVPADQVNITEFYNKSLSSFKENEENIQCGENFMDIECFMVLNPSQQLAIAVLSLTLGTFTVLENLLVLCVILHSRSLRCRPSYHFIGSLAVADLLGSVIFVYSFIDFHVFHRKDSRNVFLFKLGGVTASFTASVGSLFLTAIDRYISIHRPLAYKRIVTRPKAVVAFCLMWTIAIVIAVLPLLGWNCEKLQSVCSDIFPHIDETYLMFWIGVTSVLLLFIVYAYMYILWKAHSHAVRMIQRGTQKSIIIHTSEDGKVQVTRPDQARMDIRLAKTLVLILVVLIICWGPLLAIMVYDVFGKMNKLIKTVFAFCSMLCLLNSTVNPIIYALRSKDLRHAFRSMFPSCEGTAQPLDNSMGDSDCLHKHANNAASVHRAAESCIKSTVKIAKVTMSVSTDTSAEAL

| Compound | Ki [1] [µM] | Ki (Cannabinoid receptor 2) [µM] | Ki (Cannabinoid receptor 1) [µM] |
| --- | --- | --- | --- |
| COc1cc(CNC(=O)CCCCC=CC(C)C)ccc1O [CAS_404-86-4] | > 10 | > 10 | – |
| CCCCCCCCC=CCCCCCCCC(=O)NCc1ccc(O)c(OC)c1 [CAS_58493-49-5] | > 10 | > 10 | > 10 |
| CCCCCC[C@H](CC=CCCCCCCCC(=O)NCc1cc(I)c(O)c(OC)c1)OC(=O)Cc1ccccc1 [PhAR, 5-I] | > 10 | 1.5 | 5 |
| CCCCCC[C@H](CC=CCCCCCCCC(=O)NCc1cc(OC)c(O)cc1I)OC(=O)Cc1ccccc1 [PhAR, 6-I] | > 10 | 2.2 | 2.5 |
| CCCCCCC(CCCCCCCCCCC(=O)NCc1ccc(O)c(OC)c1)OC(=O)Cc1ccccc1 (stereo not given) [PhAR, Di-hydro] | > 10 | 1.1 | 5 |
| CCCCCCC(C/C=C/CCCCCCCC(=O)NCc1ccc(O)c(OC)c1)OC(=O)Cc1ccccc1 (stereo not drawn) [PhAR, ent] | > 10 | 0.4 | 2.4 |
| CCCCCC[C@H](CC=CCCCCCCCC(=O)NCc1ccc(O)c(OC)c1)OC(=O)Cc1ccccc1 [PhAR] | > 10 | 0.3 | 2.2 |
| CCCCCC[C@H](CC=CCCCCCCCC(=O)NCc1ccc(O)c(OC)c1)OC(C)=O [Rinvanil, Acetyl] | > 10 | > 10 | > 10 |
| CCCCCC[C@H](CC=CCCCCCCCC(=O)NCc1ccc(O)c(OC)c1)OC(=O)c1ccccc1 [Rinvanil, Benzoil] | > 10 | 1.4 | 1.3 |
| CCCCCC[C@H](CC=CCCCCCCCC(=O)NCc1ccc(O)c(OC)c1)OC(=O)CCc1ccccc1 [Rinvanil, Phenyl-propionyl] | > 10 | – | – |
| CCCCCC[C@@H](O)CC=CCCCCCCCC(=O)NCc1ccc(O)c(OC)c1 [Rinvanil] | > 10 | > 10 | > 10 |
